# From patent publication US12497408B2, “Tetracyclic compounds and methods for the treatment of Zika virus infection” (priority 2021, dated 2025)
# Test system: ZIKV
# Assay: ZIKV reporter virus-based antiviral screening on Huh7 cells
# Assay type: cell-based, Zika virus
# Details: Zika virus, Huh-7, 48 h, Huh7 cells infected with recombinant luciferase reporter ZIKV (MOI about 0.1), luciferase signal
# Procedure, shortened: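 Huh7 cells in 2% FBS assay medium infected at MOI about 0.1 with Renilla or Nano luciferase ZIKV premixed with nine-point compound dilutions, 48 hrs at 37° C. Luciferase signal normalized to DMSO controls as 100%; viability optionally by CellTiter-Glo with Rlu virus.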
row,Structure (SMILES),EC50
1,"CC[C@H](C)[C@H](NC(=O)OC)C(=O)N1[C@@H](C)CC[C@H]1c1nc(Cl)c(-c2cc3c4c(c2)OCc2cc(-c5[nH]c([C@@H]6CC[C@H](C)N6C(=O)[C@@H](NC(=O)OC)[C@@H](C)CC)nc5Cl)cc(c2-4)OC3)[nH]1 [Compound 28, dimethyl ((2S,2′S,3S,3′S)-((2S,2′S,5S,5′S)-((5,10-dihydrochromeno[5,4,3-cde]chromene-2,7-diyl)bis(4-chloro-1H-imidazole-5,2-diyl))bis(2-methylpyrrolidine-5,1-diyl))bis(3-methyl-1-oxopentane-1,2-diyl))dicarbamate]",1.6 nM
2,"COC(=O)N[C@H](C(=O)N1[C@H](C)CC[C@H]1c1nc(Cl)c(-c2cc3c4c(c2)OCc2cc(-c5[nH]c([C@@H]6CC[C@@H](C)N6C(=O)[C@@H](NC(=O)OC)C(C)C)nc5Cl)cc(c2-4)OC3)[nH]1)C(C)C [Compound 62, dimethyl ((2S,2′S)-((2R,2′R,5S,5′S)-((5,10-dihydrochromeno[5,4,3-cde]chromene-2,7-diyl)bis(4-chloro-1H-imidazole-5,2-diyl))bis(2-methylpyrrolidine-5,1-diyl))bis(3-methyl-1-oxobutane-1,2-diyl))dicarbamate]",17.7 nM
